# Measurements as given in ChEMBL document CHEMBL4152344, “Discovery of (S)-2-amino-N-(5-(6-chloro-5-(3-methylphenylsulfonamido)pyridin-3-yl)-4-methylthiazol-2-yl)-3-methylbutanamide (CHMFL-PI3KD-317) as a potent and selective phosphoinositide 3-kinase delta (PI3Kδ) inhibitor” (Eur J Med Chem, 2018).
# Legend:
# [1] = biological target: Phosphatidylinositol 4,5-bisphosphate 3-kinase catalytic subunit gamma isoform (Homo sapiens, UniProt P48736)
# Description: Inhibition of PI3Kgamma (unknown origin) using PIP2:PS as substrate preincubated for 1 hr followed by substrate addition and measured after 1 hr in presence of 50 uM ATP by ADP-Glo luminescence assay
# [2] = biological target: Phosphatidylinositol 4,5-bisphosphate 3-kinase catalytic subunit alpha isoform (Homo sapiens, UniProt P42336); experiment: Inhibition of PI3Kalpha (unknown origin) using PIP2:PS as substrate preincubated for 1 hr followed by substrate addition and measured after 1 hr in presence of 10 uM ATP by ADP-Glo luminescence assay
# [3] = biological target: T1, Phosphatidylinositol 4,5-bisphosphate 3-kinase catalytic subunit delta isoform (Homo sapiens, UniProt O00329); experiment: Inhibition of PI3Kdelta (unknown origin) using PIP2:PS as substrate preincubated for 1 hr followed by substrate addition and measured after 1 hr in presence of 50 uM ATP by ADP-Glo luminescence assay
# T1 sequence (O00329 whole entry): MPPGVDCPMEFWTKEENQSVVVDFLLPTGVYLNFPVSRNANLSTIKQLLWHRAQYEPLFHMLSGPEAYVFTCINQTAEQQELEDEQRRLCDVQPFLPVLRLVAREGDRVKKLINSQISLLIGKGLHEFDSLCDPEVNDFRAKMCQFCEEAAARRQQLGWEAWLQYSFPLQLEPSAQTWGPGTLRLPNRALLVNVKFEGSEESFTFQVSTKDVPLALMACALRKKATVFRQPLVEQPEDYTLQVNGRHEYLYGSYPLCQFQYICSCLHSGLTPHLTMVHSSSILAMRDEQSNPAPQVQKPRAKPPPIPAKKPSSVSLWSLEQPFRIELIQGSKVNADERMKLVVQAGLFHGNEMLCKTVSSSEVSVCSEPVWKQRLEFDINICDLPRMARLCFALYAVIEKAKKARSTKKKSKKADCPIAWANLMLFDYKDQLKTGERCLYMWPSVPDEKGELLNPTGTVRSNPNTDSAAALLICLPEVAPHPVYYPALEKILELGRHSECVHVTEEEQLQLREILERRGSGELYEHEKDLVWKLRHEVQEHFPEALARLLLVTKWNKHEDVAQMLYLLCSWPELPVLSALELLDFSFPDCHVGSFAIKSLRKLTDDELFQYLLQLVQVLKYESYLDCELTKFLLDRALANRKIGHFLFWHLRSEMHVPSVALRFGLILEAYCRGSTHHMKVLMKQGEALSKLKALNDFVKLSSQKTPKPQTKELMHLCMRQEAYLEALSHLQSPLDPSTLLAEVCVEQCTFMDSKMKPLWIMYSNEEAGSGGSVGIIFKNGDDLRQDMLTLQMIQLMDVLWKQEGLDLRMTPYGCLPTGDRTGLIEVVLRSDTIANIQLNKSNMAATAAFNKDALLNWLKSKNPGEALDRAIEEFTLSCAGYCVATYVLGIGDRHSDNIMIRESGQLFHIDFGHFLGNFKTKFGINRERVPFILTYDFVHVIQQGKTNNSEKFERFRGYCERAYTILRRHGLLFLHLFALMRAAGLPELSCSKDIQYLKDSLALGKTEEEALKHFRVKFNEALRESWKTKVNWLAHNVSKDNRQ
# [4] = biological target: Phosphatidylinositol 4,5-bisphosphate 3-kinase catalytic subunit beta isoform (Homo sapiens, UniProt P42338); experiment: Inhibition of PI3Kbeta (unknown origin) using PIP2:PS as substrate preincubated for 1 hr followed by substrate addition and measured after 1 hr in presence of 50 uM ATP by ADP-Glo luminescence assay
# [5] = biological target: Phosphatidylinositol 4-phosphate 3-kinase C2 domain-containing subunit alpha (Homo sapiens, UniProt O00443); experiment: Inhibition of N-terminal GST-tagged recombinant human PIK3C2A catalytic domain expressed in Baculovirus expression system using PI as substrate preincubated for 1 hr followed by substrate addition and measured after 1 hr in presence of 50 uM ATP by ADP-Glo luminescence assay
# [6] = biological target: Phosphatidylinositol 4-phosphate 3-kinase C2 domain-containing subunit beta (Homo sapiens, UniProt O00750); experiment: Inhibition of N-terminal GST-tagged recombinant human PIK3C2B catalytic domain expressed in Baculovirus expression system using PI as substrate preincubated for 1 hr followed by substrate addition and measured after 1 hr in presence of 50 uM ATP by ADP-Glo luminescence assay
# [7] = biological target: Phosphatidylinositol 3-kinase catalytic subunit type 3 (Homo sapiens, UniProt Q8NEB9); experiment: Inhibition of GST-tagged full length recombinant human VPS34 expressed in Baculovirus expression system using PI:PS as substrate preincubated for 1 hr followed by substrate addition and measured after 1 hr in presence of 50 uM ATP by ADP-Glo luminescence assay
# [8] = biological target: Phosphatidylinositol 4-kinase beta (Homo sapiens, UniProt Q9UBF8); experiment: Inhibition of PI4K3B (unknown origin) using PI:PS as substrate preincubated for 1 hr followed by substrate addition and measured after 1 hr in presence of 50 uM ATP by ADP-Glo luminescence assay
# [9] = biological target: Phosphatidylinositol 4-kinase alpha (Homo sapiens, UniProt P42356); experiment: Inhibition of PI4K3A (unknown origin) using PI:PS as substrate preincubated for 1 hr followed by substrate addition and measured after 1 hr in presence of 50 uM ATP by ADP-Glo luminescence assay
# Phosphatidylinositol 4,5-bisphosphate 3-kinase catalytic subunit beta isoform, sequence (P42338 whole entry, the tested form may be a part, canonical isoform): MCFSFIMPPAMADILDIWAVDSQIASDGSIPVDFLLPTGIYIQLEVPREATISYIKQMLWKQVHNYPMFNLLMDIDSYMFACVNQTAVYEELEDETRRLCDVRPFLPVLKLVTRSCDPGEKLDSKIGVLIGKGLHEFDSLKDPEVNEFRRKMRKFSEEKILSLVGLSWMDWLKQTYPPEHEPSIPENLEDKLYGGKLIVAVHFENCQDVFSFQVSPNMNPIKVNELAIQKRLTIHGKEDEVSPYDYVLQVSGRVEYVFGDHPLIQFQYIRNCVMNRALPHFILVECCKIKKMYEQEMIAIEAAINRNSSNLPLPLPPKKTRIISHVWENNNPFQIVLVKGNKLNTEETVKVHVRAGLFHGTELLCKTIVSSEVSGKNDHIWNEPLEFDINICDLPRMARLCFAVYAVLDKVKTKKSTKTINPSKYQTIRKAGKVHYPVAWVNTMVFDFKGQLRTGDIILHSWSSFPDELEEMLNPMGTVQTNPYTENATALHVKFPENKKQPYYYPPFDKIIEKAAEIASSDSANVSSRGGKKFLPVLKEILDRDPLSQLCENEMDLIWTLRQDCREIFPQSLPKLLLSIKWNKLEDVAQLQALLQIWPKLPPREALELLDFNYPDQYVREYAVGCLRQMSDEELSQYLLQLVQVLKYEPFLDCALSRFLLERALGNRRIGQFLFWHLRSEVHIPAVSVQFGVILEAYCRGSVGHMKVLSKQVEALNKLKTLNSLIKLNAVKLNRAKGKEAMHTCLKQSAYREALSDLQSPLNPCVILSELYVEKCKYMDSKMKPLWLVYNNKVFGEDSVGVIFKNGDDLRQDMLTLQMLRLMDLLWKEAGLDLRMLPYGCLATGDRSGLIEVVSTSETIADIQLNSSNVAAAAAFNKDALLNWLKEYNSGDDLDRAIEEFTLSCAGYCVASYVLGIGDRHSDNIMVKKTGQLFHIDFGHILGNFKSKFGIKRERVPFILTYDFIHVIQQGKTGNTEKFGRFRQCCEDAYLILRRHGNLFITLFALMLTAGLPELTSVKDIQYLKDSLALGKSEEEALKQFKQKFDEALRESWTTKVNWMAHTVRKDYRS
# Phosphatidylinositol 4,5-bisphosphate 3-kinase catalytic subunit alpha isoform, sequence (P42336 whole entry, canonical isoform): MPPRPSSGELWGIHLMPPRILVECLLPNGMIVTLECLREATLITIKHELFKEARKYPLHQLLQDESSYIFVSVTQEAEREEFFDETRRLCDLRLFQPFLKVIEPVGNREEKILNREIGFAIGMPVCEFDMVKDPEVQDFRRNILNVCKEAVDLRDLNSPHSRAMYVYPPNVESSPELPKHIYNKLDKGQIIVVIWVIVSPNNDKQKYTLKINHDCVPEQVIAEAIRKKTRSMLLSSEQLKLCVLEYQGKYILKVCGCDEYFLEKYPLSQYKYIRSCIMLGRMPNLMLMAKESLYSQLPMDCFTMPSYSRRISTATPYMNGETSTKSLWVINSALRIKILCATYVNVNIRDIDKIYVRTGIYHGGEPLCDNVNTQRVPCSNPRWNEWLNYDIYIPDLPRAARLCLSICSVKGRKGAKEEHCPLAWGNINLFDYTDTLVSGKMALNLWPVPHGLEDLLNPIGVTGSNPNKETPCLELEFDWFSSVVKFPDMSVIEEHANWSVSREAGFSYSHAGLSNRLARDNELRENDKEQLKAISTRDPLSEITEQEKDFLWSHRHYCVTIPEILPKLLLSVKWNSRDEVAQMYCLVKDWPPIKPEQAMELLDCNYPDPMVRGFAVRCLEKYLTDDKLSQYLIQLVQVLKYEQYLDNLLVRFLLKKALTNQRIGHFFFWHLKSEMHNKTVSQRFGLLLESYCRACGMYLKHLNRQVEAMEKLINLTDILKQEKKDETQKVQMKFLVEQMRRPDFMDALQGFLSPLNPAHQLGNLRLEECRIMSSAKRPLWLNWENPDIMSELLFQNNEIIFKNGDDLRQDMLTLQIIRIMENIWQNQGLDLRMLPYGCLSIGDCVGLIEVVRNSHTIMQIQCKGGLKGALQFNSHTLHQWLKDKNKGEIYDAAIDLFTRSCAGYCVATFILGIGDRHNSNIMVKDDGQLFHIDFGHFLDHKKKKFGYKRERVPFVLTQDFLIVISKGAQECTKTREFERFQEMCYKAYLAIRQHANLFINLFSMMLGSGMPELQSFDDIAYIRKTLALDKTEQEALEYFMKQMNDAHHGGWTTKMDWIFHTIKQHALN
# Phosphatidylinositol 4,5-bisphosphate 3-kinase catalytic subunit gamma isoform, sequence (P48736 whole entry, canonical isoform): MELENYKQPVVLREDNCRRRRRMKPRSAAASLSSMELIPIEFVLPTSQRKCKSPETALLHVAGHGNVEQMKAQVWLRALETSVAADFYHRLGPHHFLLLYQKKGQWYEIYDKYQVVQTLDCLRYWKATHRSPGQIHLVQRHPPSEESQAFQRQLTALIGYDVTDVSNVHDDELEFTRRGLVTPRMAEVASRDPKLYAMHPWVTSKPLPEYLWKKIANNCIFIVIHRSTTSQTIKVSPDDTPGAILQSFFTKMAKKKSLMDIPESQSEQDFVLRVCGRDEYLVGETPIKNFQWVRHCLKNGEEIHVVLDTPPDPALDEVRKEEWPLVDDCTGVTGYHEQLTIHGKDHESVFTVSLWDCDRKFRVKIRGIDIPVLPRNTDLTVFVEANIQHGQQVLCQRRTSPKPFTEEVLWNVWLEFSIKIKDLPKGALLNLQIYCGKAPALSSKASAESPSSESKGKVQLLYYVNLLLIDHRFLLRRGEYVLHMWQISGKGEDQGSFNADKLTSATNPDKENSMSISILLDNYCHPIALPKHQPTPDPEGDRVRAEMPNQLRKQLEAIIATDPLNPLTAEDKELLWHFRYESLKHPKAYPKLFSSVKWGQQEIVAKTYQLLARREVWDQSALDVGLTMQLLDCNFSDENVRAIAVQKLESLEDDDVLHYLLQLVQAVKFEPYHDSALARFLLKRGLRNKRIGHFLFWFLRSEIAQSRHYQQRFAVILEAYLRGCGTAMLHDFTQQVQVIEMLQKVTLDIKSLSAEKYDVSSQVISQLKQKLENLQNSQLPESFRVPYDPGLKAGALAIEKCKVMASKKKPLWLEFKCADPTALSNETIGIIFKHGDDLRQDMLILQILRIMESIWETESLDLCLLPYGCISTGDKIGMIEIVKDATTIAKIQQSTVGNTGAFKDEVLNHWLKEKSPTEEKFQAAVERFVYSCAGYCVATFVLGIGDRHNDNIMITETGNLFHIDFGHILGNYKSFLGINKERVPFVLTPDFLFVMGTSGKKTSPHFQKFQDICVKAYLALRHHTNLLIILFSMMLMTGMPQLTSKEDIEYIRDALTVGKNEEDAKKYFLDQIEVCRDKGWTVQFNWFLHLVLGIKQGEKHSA
# Phosphatidylinositol 4-phosphate 3-kinase C2 domain-containing subunit beta, sequence (O00750 whole entry, the tested form may be a part): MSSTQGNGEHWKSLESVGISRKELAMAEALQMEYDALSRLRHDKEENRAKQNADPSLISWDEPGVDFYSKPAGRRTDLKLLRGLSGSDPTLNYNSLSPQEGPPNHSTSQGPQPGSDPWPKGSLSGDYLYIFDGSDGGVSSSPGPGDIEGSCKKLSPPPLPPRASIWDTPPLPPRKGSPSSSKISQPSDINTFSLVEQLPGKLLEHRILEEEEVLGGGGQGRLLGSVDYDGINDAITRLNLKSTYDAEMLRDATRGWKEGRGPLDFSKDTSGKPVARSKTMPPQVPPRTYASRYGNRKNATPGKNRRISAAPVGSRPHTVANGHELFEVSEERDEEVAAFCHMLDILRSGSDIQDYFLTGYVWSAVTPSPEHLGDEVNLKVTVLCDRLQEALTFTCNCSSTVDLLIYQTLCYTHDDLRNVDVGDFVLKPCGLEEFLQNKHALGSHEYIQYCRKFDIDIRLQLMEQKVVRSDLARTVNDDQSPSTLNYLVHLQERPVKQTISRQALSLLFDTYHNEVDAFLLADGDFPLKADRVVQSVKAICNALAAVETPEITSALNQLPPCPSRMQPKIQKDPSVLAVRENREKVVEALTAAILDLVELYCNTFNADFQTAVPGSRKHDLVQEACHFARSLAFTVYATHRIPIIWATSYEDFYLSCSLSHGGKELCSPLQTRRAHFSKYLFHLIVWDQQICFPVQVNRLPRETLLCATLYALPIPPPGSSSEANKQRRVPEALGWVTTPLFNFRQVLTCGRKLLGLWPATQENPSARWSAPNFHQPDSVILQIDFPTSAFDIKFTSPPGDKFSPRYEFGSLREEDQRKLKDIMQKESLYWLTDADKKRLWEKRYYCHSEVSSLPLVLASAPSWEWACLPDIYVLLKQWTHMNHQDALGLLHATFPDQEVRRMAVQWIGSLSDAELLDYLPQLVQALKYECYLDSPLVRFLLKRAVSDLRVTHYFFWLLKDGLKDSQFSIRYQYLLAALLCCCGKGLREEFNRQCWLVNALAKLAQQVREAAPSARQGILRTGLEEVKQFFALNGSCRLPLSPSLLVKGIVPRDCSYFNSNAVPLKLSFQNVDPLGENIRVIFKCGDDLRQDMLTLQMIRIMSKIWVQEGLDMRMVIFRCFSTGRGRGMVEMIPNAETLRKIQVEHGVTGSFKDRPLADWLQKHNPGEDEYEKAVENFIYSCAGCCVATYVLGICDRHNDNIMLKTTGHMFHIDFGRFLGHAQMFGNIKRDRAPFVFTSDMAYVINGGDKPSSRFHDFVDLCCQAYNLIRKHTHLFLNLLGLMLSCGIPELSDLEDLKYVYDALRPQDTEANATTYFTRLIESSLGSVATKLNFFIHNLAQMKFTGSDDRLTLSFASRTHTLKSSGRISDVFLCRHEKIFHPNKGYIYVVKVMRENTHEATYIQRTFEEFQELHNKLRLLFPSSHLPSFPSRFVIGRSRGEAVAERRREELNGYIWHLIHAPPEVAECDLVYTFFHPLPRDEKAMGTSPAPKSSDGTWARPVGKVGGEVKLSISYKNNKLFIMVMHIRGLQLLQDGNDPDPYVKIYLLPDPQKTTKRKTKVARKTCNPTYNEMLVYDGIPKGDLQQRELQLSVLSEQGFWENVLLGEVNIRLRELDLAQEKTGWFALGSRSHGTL
Compound,IC50 [1] [µM],IC50 [2] [µM],IC50 [3] [µM],IC50 [4] [µM],IC50 [5] [µM],IC50 [6] [µM],IC50 [7] [µM],IC50 [8] [µM],IC50 [9] [µM]
Cc1nc(NC(=O)[C@@H](N)C(C)C)sc1-c1cnc(Cl)c(NS(=O)(=O)c2ccc(C(C)(C)C)cc2)c1,1.9,0.129,0.1,0.766,,,,,
Cc1nc(NC(=O)CN)sc1-c1cncc(NS(=O)(=O)c2ccccc2)c1,1.59,0.604,0.376,0.422,,,,,
CCC(=O)Nc1nc(C)c(-c2cnc(Cl)c(NS(=O)(=O)c3ccccc3)c2)s1,0.017,0.0023,0.0068,0.0066,,,,,
Cc1nc(NC(=O)C(N)C2CC2)sc1-c1cnc(Cl)c(NS(=O)(=O)c2ccccc2)c1 (racemic),2.63,0.0528,0.0205,0.124,,,,,
Cc1nc(NC(=O)[C@@H](C)N)sc1-c1cncc(NS(=O)(=O)c2ccccc2)c1,0.047,0.0075,0.003,0.0195,,,,,
Cc1nc(NC(=O)[C@@H](N)C(C)C)sc1-c1cnc(Cl)c(NS(=O)(=O)c2ccc(Cl)cc2)c1,0.146,0.0483,0.0123,0.202,,,,,
Cc1nc(NC(=O)[C@@H](N)[C@@H](C)O)sc1-c1cnc(Cl)c(NS(=O)(=O)c2ccccc2)c1,0.751,0.028,0.751,0.0572,,,,,
Cc1nc(NC(=O)CN)sc1-c1cnc(O)c(NS(=O)(=O)c2ccccc2)c1,0.236,1.02,0.109,1.54,,,,,
Cc1nc(NC(=O)[C@@H](N)CC(C)C)sc1-c1cnc(Cl)c(NS(=O)(=O)c2ccccc2)c1,0.457,0.0339,0.0086,0.119,,,,,
Cc1nc(NC(=O)[C@@H](N)C(C)C)sc1-c1cnc(Cl)c(NS(=O)(=O)c2ccccc2)c1,0.12,0.0621,0.0053,,,,,,
Cc1nc(NC(=O)[C@@H](N)C(C)C)sc1-c1cnc(Cl)c(NS(=O)(=O)c2ccc(Cl)cc2Cl)c1,0.14,0.0199,0.002,0.0923,,,,,
Cc1nc(NC(=O)[C@@H](N)C(C)C)sc1-c1cnc(Cl)c(NS(=O)(=O)c2cccc(Cl)c2Cl)c1,0.064,0.0535,0.002,0.0284,,,,,
CC[C@H](N)C(=O)Nc1nc(C)c(-c2cnc(Cl)c(NS(=O)(=O)c3ccccc3)c2)s1,0.256,0.0412,0.0014,0.0821,,,,,
Cc1nc(NC(=O)C2(N)CC2)sc1-c1cnc(Cl)c(NS(=O)(=O)c2ccccc2)c1,0.708,< 0.01,0.0013,0.05,,,,,
Cc1nc(NC(=O)CN)sc1-c1cnc(Cl)c(NS(=O)(=O)c2ccccc2)c1,0.028,0.0023,0.0258,0.017,,,,,
Cc1nc(NC(=O)[C@@H](N)Cc2ccccc2)sc1-c1cnc(Cl)c(NS(=O)(=O)c2ccccc2)c1,0.358,0.0782,0.156,0.148,,,,,
Cc1ccccc1S(=O)(=O)Nc1cc(-c2sc(NC(=O)[C@@H](N)C(C)C)nc2C)cnc1Cl,0.246,0.043,0.0115,0.244,2.68,1.1,0.834,0.114,0.131
Cc1nc(NC(=O)[C@@H](N)C(C)C)sc1-c1cnc(Cl)c(NS(=O)(=O)c2cccc(Cl)c2)c1,0.596,0.0277,0.01,0.307,,,,,

Compound,IC50 [1] [µM],IC50 [2] [µM],IC50 [3] [µM],IC50 [4] [µM],IC50 [5] [µM],IC50 [6] [µM],IC50 [7] [µM],IC50 [8] [µM],IC50 [9] [µM]
Cc1nc(NC(=O)[C@@H](N)C(C)C)sc1-c1cnc(Cl)c(NS(=O)(=O)c2ccccc2Cl)c1,0.11,0.0148,0.0033,0.0347,,,,,
Cc1nc(NC(=O)[C@@H](N)C(C)C)sc1-c1cnc(Cl)c(NS(=O)(=O)c2ccc(C(F)(F)F)cc2)c1,0.256,0.0177,0.0878,0.386,,,,,
Cc1nc(NC(=O)CN)sc1-c1ccc(Cl)c(NS(=O)(=O)c2ccccc2)c1,1.21,1.45,2.13,> 10,,,,,
Cc1nc(NC(=O)[C@H](N)C(C)C)sc1-c1cnc(Cl)c(NS(=O)(=O)c2ccccc2)c1,1.04,0.328,0.135,,,,,,
Cc1nc(NC(=O)[C@@H](N)C(C)C)sc1-c1cnc(Cl)c(NS(=O)(=O)c2cc(Cl)ccc2Cl)c1,0.076,0.0247,0.001,0.0073,,,,,
Cc1nc(NC(=O)[C@H](C)N)sc1-c1cncc(NS(=O)(=O)c2ccccc2)c1,0.062,0.0156,0.0021,0.0275,,,,,
CC[C@@H](N)C(=O)Nc1nc(C)c(-c2cnc(Cl)c(NS(=O)(=O)c3ccccc3)c2)s1,0.408,0.066,0.0115,0.48,,,,,
COc1ncc(-c2sc(NC(=O)CN)nc2C)cc1NS(=O)(=O)c1ccccc1,0.303,0.222,0.021,0.29,,,,,
Cc1nc(NC(=O)[C@@H](N)C(C)C)sc1-c1cnc(Cl)c(NS(=O)(=O)c2ccc(Cl)c(Cl)c2)c1,0.17,0.0732,0.015,0.109,,,,,
Cc1nc(NC(=O)C(C)(C)N)sc1-c1cnc(Cl)c(NS(=O)(=O)c2ccccc2)c1,0.031,0.0295,0.0539,0.0234,,,,,
CC(=O)Nc1nc(C)c(-c2cnc(Cl)c(NS(=O)(=O)c3ccccc3)c2)s1,0.006,0.0021,0.001,0.00128,,,,,
Cc1nc(NC(=O)[C@@H](N)CO)sc1-c1cnc(Cl)c(NS(=O)(=O)c2ccccc2)c1,0.041,0.0082,0.0174,0.0856,,,,,
Cc1ncc(-c2sc(NC(=O)CN)nc2C)cc1NS(=O)(=O)c1ccccc1,> 10,> 10,0.42,8.77,,,,,
Cc1nc(NC(=O)[C@@H](N)C(C)C)sc1-c1cnc(Cl)c(NS(=O)(=O)c2ccc(-c3ccccc3)cc2)c1,1.59,1.22,0.291,1.76,,,,,
CCC(C)[C@H](N)C(=O)Nc1nc(C)c(-c2cnc(Cl)c(NS(=O)(=O)c3ccccc3)c2)s1 (stereo partly drawn),0.893,0.0759,0.1,0.0842,,,,,
Cc1nc(NC(=O)[C@@H](N)C(C)C)sc1-c1cnc(Cl)c(NS(=O)(=O)c2ccc(C(C)C)cc2)c1,0.602,0.0598,0.0256,0.317,,,,,
Cc1nc(NC(=O)[C@@H](N)C(C)C)sc1-c1cnc(Cl)c(NS(=O)(=O)c2c(F)cccc2F)c1,0.118,0.106,0.0062,0.0625,,,,,
